The structures appear in SMILES notation. Converted amounts (≈) assume the structure as drawn.

The values below come from patent US9241917B2, “Facially amphiphilic polymers and oligomers and uses thereof” (priority 2003, dated 2016).

Series [1] concerns human erythrocytes. The series can be described thus: Hemolysis of human erythrocytes. It counts as cell-based. On the procedure: For example, cytotoxic selectivity can be assessed by determining the hemolytic activity of the polymer or oligomer. Hemolytic activity assays are performed by measuring the degree of hemolysis of human erythrocytes following incubation in the presence of the polymer or oligomer and determining HC50 values. […] See also Javadpour, M. M., et al., J. Med. Chem. 39:3107-3113 (1996).
The toxicity to mammalian cells of polymers and oligomers of the present invention was evaluated using human blood obtained from healthy volunteers, anticoagulated with 0.1 volume of sodium citrate. The general procedure is as follows: Washed erythrocytes are suspended in either HEPES buffer, pH 7.4, containing 1 mM Mg2^+ and 1 mM Ca2^+ or in heated and unheated autologous serum obtained from clotted blood. Red cell agglutination is evaluated microscopically and red cell lysis is evaluated by measuring the amount of released hemoglobin spectroscopically. The effect of polymers on platelet function is studied by adding increasing concentrations of polymer to citrate-anticoagulated platelet-rich plasma. Platelet aggregation and secretion are then evaluated in a lumi-aggregometer (Chrono-Log).
One distinction is that the studies with Pmx10073 were done in whole blood. […] The concentrations of compound that are cytotoxic for mammalian cells were determined and compared to efficacious concentrations. […]

The test system of series [2] is Heparin. Nature of the series: Clotting time of activated plasma in the presence of heparin. It is filed as biochemical. Set-up: unit not given here. To be noted: heparin 1 unit, 0.2 ug/ml.
The test system of series [3] is low molecular weight heparin (LMWH, Innohep). The series can be described thus: Clotting time of activated plasma in the presence of LMWH. It is filed as biochemical. The following applies: for Clotting time of activated plasma: LMWH 4.6 ug/ml.
Series [4] concerns E. coli. Nature of the series: Antimicrobial assay, minimal inhibitory concentration against E. coli.
For series [5], the system named is Candida albicans ATCC 10231. The series can be described thus: Antifungal growth assay (MIC100), Candida albicans. The following applies: ATCC10231, 20 h. It counts as cell-based. How it is done: (§1) Several different genera of fungi were tested for their sensitivity to a set of salicylamide and arylamide oligomers. Both non-filamentous (yeast) and filamentous fungi were tested and specific fungi that are associated with various types of human infections were chosen for the screen (Table 4). […] All growth assays were done in a total of 1 ml volumes and growth was assessed by turbidity measurements. Other assay conditions are described in Table 6.

Series [6] deals with Aspergillus fumigatus ATCC 1028. The series can be described thus: Antifungal growth assay (MIC100), Aspergillus fumigatus. It counts as cell-based. To be noted: ATCC1028, 48 h, complete inhibition of growth, 2 days, 28° C. How it is done: as §1
Series [7] has as its system Cryptococcus neoformans ATCC 24067. The series can be described thus: Antifungal growth assay (MIC100), Cryptococcus neoformans. It is filed as cell-based. The following applies: ATCC24067, 48 h, complete inhibition of growth, 2 days, 37° C. How it is done:
as §1

Series [8] deals with Trichophyton mentagrophytes ATCC 9533. Nature of the series: Antifungal growth assay (MIC100), Trichophyton mentagrophytes. It counts as cell-based. The following applies: ATCC9533, 72 h, complete inhibition of growth, 3 days, 28° C. How it is done:
as §1

The subject of series [9] is Trichophyton rubrum ATCC 10218. Nature of the series: Antifungal growth assay (MIC100), Trichophyton rubrum. It counts as cell-based. The following applies: ATCC10218, 72 h, complete inhibition of growth, 3 days, 28° C. On the procedure: as §1
Series [10] deals with E. coli (ATCC25922). The series can be described thus: Growth assay (MIC100), E. coli control organism. It counts as cell-based. The following applies: Escherichia coli, ATCC25922, 20 h. On the procedure: as §1

For the compound `CC(C)(C)c1cc(NC(=O)c2cc(OCCN)cc(C(=O)Nc3cc(C(C)(C)C)cc(NC(=O)[C@H](N)CCCNC(=N)N)c3SCCN)c2)c(SCCN)c(NC(=O)[C@H](N)CCCNC(=N)N)c1` [Compound 12], the “Concentration lysing red cells (no lysis up to)” value in [1] is greater than 800 µM.
Consider `CC(C)CC(NC(=O)c1cc(NC(=O)C(CC(C)C)NC(=O)c2cc(NC(=O)C(CC(C)C)NC(=O)c3cc(NC(=O)C(CC(C)C)NC(=O)c4cc(NC(=O)C(CC(C)C)NC(=O)c5cc(N)ccc5OCCNC(=N)N)ccc4OCCNC(=N)N)ccc3OCCNC(=N)N)ccc2OCCNC(=N)N)ccc1OCCNC(=N)N)C(N)=O` (stereo not drawn) [#10], for which, in [2] (oligomer 4.4 ug/ml), the “Clotting time, Average” value is greater than 400; the “Clotting time, Trial #1” value is 113.8; the “Clotting time, Trial #2” value came to 317.6; the “Clotting time, Trial #3” value is greater than 450. The “Clotting time, Trial #4” value in series [2] (oligomer 4.4 ug/ml) is on record as greater than 450. Further, in [2] (oligomer 44.4 ug/ml), the “Clotting time, Average” value amounted to 38.7; the “Clotting time, Trial #1” value stood at 40.7; the “Clotting time, Trial #2” value is 35.6; the “Clotting time, Trial #3” value was 36.7. Further, the “Clotting time, Trial #4” value in series [2] (oligomer 44.4 ug/ml) amounted to 33.7. For the same compound, the “Clotting time of activated plasma” value in [3] (oligomer 14.8 ug/ml) came out at 97.6.
`CC(C)(C)c1cc2c(OCC(=O)NCCCCCN)c(c1)Cc1cc(C(C)(C)C)cc(c1OCC(=O)NCCCCCN)Cc1cc(C(C)(C)C)cc(c1OCC(=O)NCCCCCN)Cc1cc(C(C)(C)C)cc(c1OCC(=O)NCCCCCN)C2` [#18]: in [2] (oligomer 4.4 ug/ml), the “Clotting time, Average” value came out at 57.6 and the “Clotting time, Trial #1” value is 57.6. In addition, the “Clotting time of activated plasma” value in [3] (oligomer 0.4 ug/ml) stood at 140.1. Moreover, the “Clotting time of activated plasma” value in [3] (oligomer 14.8 ug/ml) stood at 48.6.
Regarding `CC(C)CC(N)C(=O)Nc1cc(C(C)(C)C)cc(NC(=O)c2cccc(C(=O)Nc3cc(C(C)(C)C)cc(NC(=O)C(N)CC(C)C)c3SCCN)c2)c1SCCN` (stereo not drawn) [#13], in series [2] (oligomer 4.4 ug/ml), the “Clotting time, Average” value is recorded as 92.4; the “Clotting time, Trial #1” value was 81.2; the “Clotting time, Trial #2” value was 88.2; the “Clotting time, Trial #3” value worked out at 94.1. Moreover, the “Clotting time, Trial #4” value in [2] (oligomer 4.4 ug/ml) is 106.2. Moreover, in series [3] (oligomer 14.8 ug/ml), the “Clotting time of activated plasma” value was 189.2.
With `CC(C)(C)c1cc(NC(=O)c2cccc(C(=O)Nc3cc(C(C)(C)C)cc(NC(=O)[C@@H](N)CCCNC(=N)N)c3SCCN)c2)c(SCCN)c(NC(=O)[C@@H](N)CCCNC(=N)N)c1` [Compound 6], the “HC50 RBC” value in series [1] (Table 1, arylamide series, one hour incubation, 50% hemoglobin release) stood at 715 µg/mL. Besides, in [4] (Escherichia coli, read-out: MIC E. coli), the MIC stood at 6 µg/mL (≈ 6.51 µM). In addition, the “Antimicrobial activity against E. coli, in words” value in series [4] (text on Tables 1 and 2) is “highly potent and selective”.
On to `COc1ccc(NC(=O)C(CCCNC(=N)N)NC(=O)c2cc(NC(=O)C(CCCNC(=N)N)NC(=O)c3cc(NC(=O)C(CCCNC(=N)N)NC(=O)c4cc(NC(=O)C(CCCNC(=N)N)NC(=O)c5cc(N)ccc5OC)ccc4OC)ccc3OC)ccc2OC)cc1C(=O)NC(CCCNC(=N)N)C(N)=O` (stereo not drawn) [#3], for which, in [2] (oligomer 4.4 ug/ml), the “Clotting time, Average” value was 80.3; the “Clotting time, Trial #1” value was 72.2; the “Clotting time, Trial #2” value worked out at 75.1; the “Clotting time, Trial #3” value was 81.2. Also, the “Clotting time, Trial #4” value in [2] (oligomer 4.4 ug/ml) was found to be 92.6. Besides, in series [2] (oligomer 44.4 ug/ml), the “Clotting time, Average” value is recorded as 36.8; the “Clotting time, Trial #1” value is 38.7; the “Clotting time, Trial #2” value is listed as 34.1; the “Clotting time, Trial #3” value is 38.6. Further, in [2] (oligomer 44.4 ug/ml), the “Clotting time, Trial #4” value was determined as 35.6. The “Clotting time of activated plasma” value in [3] (oligomer 14.8 ug/ml) is recorded as 109.2.
Take `C[C@@H]1[C@H](O)[C@@H](C)/C=C/C=C/C=C/C=C/C=C/C=C/C=C/[C@H](O[C@@H]2O[C@H](C)[C@@H](O)[C@H](N)[C@@H]2O)C[C@@H]2O[C@](O)(C[C@@H](O)C[C@@H](O)[C@H](O)CC[C@@H](O)C[C@@H](O)CC(=O)O[C@H]1C)C[C@H](O)[C@H]2C(=O)O` [Amphotericin]: the MIC was determined as 0.1 µg/mL (≈ 0.108 µM) in series [5]; 1 µg/mL (≈ 1.08 µM) in series [6]; 0.1 µg/mL (≈ 0.108 µM) in series [7]; 0.3 µg/mL (≈ 0.325 µM) in series [8]; 1 µg/mL (≈ 1.08 µM) in series [9]; 3 µg/mL (≈ 3.25 µM) in series [10].
Consider `CC(C)CCOc1ccc(NC(=O)C(CCCNC(=N)N)NC(=O)c2cc(NC(=O)C(CCCNC(=N)N)NC(=O)c3cc(NC(=O)C(CCCNC(=N)N)NC(=O)c4cc(NC(=O)C(CCCNC(=N)N)NC(=O)c5cc(N)ccc5OCCC(C)C)ccc4OCCC(C)C)ccc3OCCC(C)C)ccc2OCCC(C)C)cc1C(=O)NC(CCCNC(=N)N)C(N)=O` (stereo not drawn) [#4], for which, in [2] (oligomer 4.4 ug/ml), the “Clotting time, Average” value came to 169.8; the “Clotting time, Trial #1” value is given as 175.5; the “Clotting time, Trial #2” value is given as 153.8; the “Clotting time, Trial #3” value is 157.1. Also, the “Clotting time, Trial #4” value in [2] (oligomer 4.4 ug/ml) was determined as 192.6. Further, in series [2] (oligomer 44.4 ug/ml), the “Clotting time, Average” value was 29.2; the “Clotting time, Trial #1” value amounted to 31.6; the “Clotting time, Trial #2” value is listed as 29.6; the “Clotting time, Trial #3” value was determined as 29.6. Also, the “Clotting time, Trial #4” value in [2] (oligomer 44.4 ug/ml) is on record as 26.1. Moreover, the “Clotting time of activated plasma” value in [3] (oligomer 0.4 ug/ml) amounted to 137.7. Also, in series [3] (oligomer 14.8 ug/ml), the “Clotting time of activated plasma” value came to 44.9.
Turning to `CC(C)CCOc1cc(OCCC(C)C)c(C(=O)NNC(=O)c2cc(C(=O)NCCN(C)C)c(OCCCCCN)cc2OCCCCCN)cc1C(=O)NNC(=O)c1cc(C(=O)NCCN(C)C)c(OCCCCCN)cc1OCCCCCN` [#19], the results for the “Clotting time, Average” value in series [2] (oligomer 0.4 ug/ml), in series [2] (oligomer 1.5 ug/ml) and in series [2] (oligomer 4.4 ug/ml) were greater than 400, 40.2 and 27.9, respectively. In addition, the “Clotting time, Trial #1” value in [2] (oligomer 0.4 ug/ml) is on record as greater than 400; in series [2] (oligomer 1.5 ug/ml), 43.2; in [2] (oligomer 4.4 ug/ml) it was 29.0. Besides, the “Clotting time, Trial #2” value in series [2] (oligomer 1.5 ug/ml) worked out at 37.1; in series [2] (oligomer 4.4 ug/ml), 26.7. For the same compound, the “Clotting time of activated plasma” value in series [3] (oligomer 0.4 ug/ml) turned out to be 64.2; in series [3] (oligomer 1.5 ug/ml), 232.8; in [3] (oligomer 14.8 ug/ml), 34.
As to `CC(C)CCOc1cc(OCCC(C)C)c(C(=O)NNC(=O)c2cc(C(=O)NCCN(C)C)c(OCCCCCN)cc2OCCCCCN)cc1C(=O)NNC(=O)c1cc(C(=O)NCCN(C)C)c(OCCCCCN)cc1OCCCCCN` [Compound 19], the “Antagonism of the delay in plasma clotting caused by LMWH, in words” value in [3] (oligomer 4.4 ug/ml, LMWH (Innohep) 4.6 ug/ml final concentration) is listed as “significantly antagonized the delay in plasma clotting”.
